Test results from patent publication US20250332173A1, “COMPOUNDS AND METHODS FOR MODULATING NUCLEIC ACID SPLICING” (REMIX THERAPEUTICS INC., priority 2021, published 2025).

What was measured:
Target C = assay: RT-qPCR splicing assay panel, Target C canonical junction (CJ) mRNA; type: cell-based, human; details: Homo sapiens; Table 5 panel; canonical junction qPCR; compound concentration having 50% response in CJ decrease; read-out: Target C IC50 (decrease in CJ mRNA levels)
Summary of the method: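 Canonical-junction transcript levels in compound-treated A673 or K562 cells (24 h, up to 10 uM final) were determined from lysates by RT-qPCR with housekeeping-gene normalization.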

HTT = assay: HiBiT protein abundance assay, HTT HiBiT K562 cell line; type: cell-based, human; details: HiBiT K562 cell line, 24 hours, top dose 10 μM; read-out: Effect on protein abundance, HTT (IC50 category)
Summary of the method: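 Endogenous targets in K562 knock-in lines carried a HiBiT tag and were treated for 24 h at 37 °C with 10-point 3-fold dilutions (top 10 μM final, DMSO ≤0.25%). Abundance was read as lytic Nano-Glo HiBiT luminescence. IC50 came from a four-parameter logistic fit of normalized response.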

Row | Compound | IC50 (Target C) | IC50 (HTT)
1 | Cc1cn2cc(-c3ccc4c(=O)n(C5CCNC5)cc(C)c4c3)cc(C#N)c2n1 (centres unmarked) [Compound 442, 2-methyl-6-[4-methyl-1-oxo-2-(pyrrolidin-3-yl)isoquinolin-6-yl]imidazo[1,2-a]pyridine-8-carbonitrile] | > 10000 nM | > 10000 nM
2 | Cc1cn2cc(-c3cc(F)c4c(=O)n([C@@H]5CCNC5)ccc4c3)cc(F)c2n1 (single isomer, unassigned) [Compound 395] | > 10000 nM | 100 to 1000 nM
3 | Cc1cc(-c2cc(F)c3c(=O)n(C4CCNC5(CC5)C4)ccc3c2)cc2c1nc(C)n2C (centres unmarked) [Compound 429] | > 10000 nM | > 10000 nM
4 | Cc1cn2cc(-c3cc(F)c4c(=O)n([C@H]5CCNC5)ccc4c3)cc(F)c2n1 (single isomer, unassigned) [Compound 396] | > 10000 nM | 100 to 1000 nM
5 | Cc1cn2cc(-c3cc(F)c4c(=O)n(C5CCNC5)ccc4c3)cc(C#N)c2n1 (centres unmarked) [Compound 434, 6-[8-fluoro-1-oxo-2-(pyrrolidin-3-yl)isoquinolin-6-yl]-2-methylimidazo[1,2-a]pyridine-8-carbonitrile] | > 10000 nM | > 10000 nM
6 | Cc1cn2cc(-n3ccc4cc(N5C[C@@H](C)N[C@@H](C)C5)ccc4c3=O)nc(C)c2n1 [Compound 454, 2-{2,8-dimethylimidazo[1,2-a]pyrazin-6-yl}-6-[(3R,5S)-3,5-dimethylpiperazin-1-yl]isoquinolin-1-one] | > 10000 nM | > 10000 nM
7 | Cn1cc2c(n1)CCN(c1cc(F)c3c(=O)n(C4CCNCC4)cnc3c1)C2 [Compound 365, 5-fluoro-7-(2-methyl-2,4,6,7-tetrahydro-5H-pyrazolo[4,3-c]pyridin-5-yl)-3-(piperidin-4-yl)quinazolin-4(3H)-one] | > 10000 nM | > 10000 nM
8 | Cc1cn2cc(-c3cc(F)c4c(=O)n(C5CCNCC5)ccc4c3)cc(C#N)c2n1 [Compound 383, 6-[8-fluoro-1-oxo-2-(piperidin-4-yl)isoquinolin-6-yl]-2-methylimidazo[1,2-a]pyridine-8-carbonitrile] | 1000 to 10000 nM | 100 to 1000 nM
9 | COc1cc(-c2cc(C)c3nc(C)cn3n2)cc2ccn(C3CCNCC3)c(=O)c12 [Compound 399, 6-{2,8-dimethylimidazo[1,2-b]pyridazin-6-yl}-8-methoxy-2-(piperidin-4-yl)isoquinolin-1-one] | 1000 to 10000 nM | 100 to 1000 nM
10 | Cc1c(O)c(-c2cc(F)c3c(=O)n(C4CCNC5(CC5)C4)ccc3c2)cc2cn(C)nc12 (centres unmarked) [Compound 419, 2-{4-azaspiro[2.5]octan-7-yl}-8-fluoro-6-(6-hydroxy-2,7-dimethylindazol-5-yl)isoquinolin-1-one] | > 10000 nM | > 10000 nM
11 | Cc1cn2cc(-c3ccc4c(=O)n([C@@H]5CCNC5)cc(C)c4c3)cc(F)c2n1 [Compound 452, (R)-6-(8-fluoro-2-methylimidazo[1,2-a]pyridin-6-yl)-4-methyl-2-(pyrrolidin-3-yl)isoquinolin-1(2H)-one] | > 10000 nM | > 10000 nM
12 | Cn1cc2nc(-c3ccc4c(=O)n(C5CCNC6(CC6)C5)ncc4c3)ccc2n1 (centres unmarked) [Compound 511] | 1000 to 10000 nM | 100 to 1000 nM
13 | Cc1cn2cc(-c3ccc4c(=O)n([C@H]5CCNC5)cc(C)c4c3)cc(C#N)c2n1 [Compound 456, (S)-2-methyl-6-(4-methyl-1-oxo-2-(pyrrolidin-3-yl)-1,2-dihydroisoquinolin-6-yl)imidazo[1,2-a]pyridine-8-carbonitrile] | > 10000 nM | > 10000 nM
14 | Cc1cn2nc(-c3ccc4c(=O)n([C@H]5CCNC[C@H]5F)cnc4c3)cc(C)c2n1 [Compound 372] | 1000 to 10000 nM | 100 to 1000 nM
15 | Cc1cn2cc(-c3cc(F)c4c(=O)n(C5CCOC5)cnc4c3)cc(C#N)c2n1 (centres unmarked) [Compound 366, 6-[5-fluoro-4-oxo-3-(oxolan-3-yl)quinazolin-7-yl]-2-methylimidazo[1,2-a]pyridine-8-carbonitrile] | 1000 to 10000 nM | 1000 to 10000 nM

More lines, now with the values ahead:

Row | IC50 (Target C) | IC50 (HTT) | Compound
16 | 1000 to 10000 nM | < 100 nM | Cc1cn2nc(-c3ccc4c(=O)n(C5CCNCC5)cc(C)c4c3)cc(C)c2n1 [Compound 381, 6-{2,8-dimethylimidazo[1,2-b]pyridazin-6-yl}-4-methyl-2-(piperidin-4-yl)isoquinolin-1-one]
17 | 100 to 1000 nM | 100 to 1000 nM | Cc1cn2cc(-c3cc(F)c4c(=O)n(C5CCOC5)cnc4c3)cc(C#N)c2n1 (stereo in doubt) [Compound 499, (R)-6-(5-fluoro-4-oxo-3-(tetrahydrofuran-3-yl)-3,4-dihydroquinazolin-7-yl)-2-methylimidazo[1,2-a]pyridine-8-carbonitrile]
18 | < 100 nM | < 100 nM | Cc1cn2nc(-c3cc4ccn(C5CCNCC5)c(=O)c4cc3O)cc(C)c2n1 [Compound 448, 6-{2,8-dimethylimidazo[1,2-b]pyridazin-6-yl}-7-hydroxy-2-(piperidin-4-yl)isoquinolin-1-one]
19 | 100 to 1000 nM | > 10000 nM | Cc1cn2cc(-c3cc(O)c4c(=O)n(C5CCNC5)ccc4c3)cc(C#N)c2n1 (centres unmarked) [Compound 433, 6-(8-hydroxy-1-oxo-2-(pyrrolidin-3-yl)-1,2-dihydroisoquinolin-6-yl)-2-methylimidazo[1,2-a]pyridine-8-carbonitrile]
20 | 100 to 1000 nM | 100 to 1000 nM | Cc1cn2cc(-c3cc(F)c4c(=O)n(C5CCOCC5)cnc4c3)cc(C#N)c2n1 [Compound 367, 6-[5-fluoro-3-(oxan-4-yl)-4-oxoquinazolin-7-yl]-2-methylimidazo[1,2-a]pyridine-8-carbonitrile]
21 | 1000 to 10000 nM | 100 to 1000 nM | Cc1cn2cc(-c3ccc4c(=O)n(C5CCNC6(CC6)C5)ncc4c3)cc(Cl)c2n1 (centres unmarked) [Compound 510]
22 | 100 to 1000 nM | < 100 nM | Cc1cc(-c2cc(F)c3c(=O)n(C4CCNC5(CC5)C4)ccc3c2)cc2cn(C)nc12 (centres unmarked) [Compound 415, 2-{4-azaspiro[2.5]octan-7-yl}-6-(2,7-dimethylindazol-5-yl)-8-fluoroisoquinolin-1-one]
23 | 100 to 1000 nM | < 100 nM | Cc1cn2nc(-c3cc(C#N)c4c(=O)n(C5CCNC6(CC6)C5)ccc4c3)cc(C)c2n1 (centres unmarked) [Compound 387]
24 | 100 to 1000 nM | < 100 nM | Cc1cn2nc(-c3cc(C)c4c(=O)n(C5CCNC6(CC6)C5)ccc4c3)cc(C)c2n1 (stereo in doubt) [Compound 397, (S)-6-(2,8-dimethylimidazo[1,2-b]pyridazin-6-yl)-8-methyl-2-(4-azaspiro[2.5]octan-7-yl)isoquinolin-1(2H)-one]
25 | 100 to 1000 nM | < 100 nM | Cc1nc2c(C)cc(-c3cc(F)c4c(=O)n(C5CCNC6(CC6)C5)ccc4c3)cc2o1 (centres unmarked) [Compound 418, 2-{4-azaspiro[2.5]octan-7-yl}-6-(2,4-dimethyl-1,3-benzoxazol-6-yl)-8-fluoroisoquinolin-1-one]
26 | 100 to 1000 nM | < 100 nM | Cc1cc(-c2cc(F)c3c(=O)n(C4CCNC5(CC5)C4)ccc3c2)nc2cn(C)nc12 (centres unmarked) [Compound 431]
27 | < 100 nM | < 100 nM | Cc1cn2nc(-c3cc(F)c4c(=O)n([C@H]5CCNC6(CC6)C5)ncc4c3)cc(C)c2n1 [Compound 447]
28 | 100 to 1000 nM | < 100 nM | Cc1cn2cc(-c3cc(F)c4c(=O)n(C5CCNCC5)ccc4c3)cc(F)c2n1 [Compound 370]
